Details: Liquid; for speed of sound: Linear variable-path acoustic interferometer; for mass density: Vibrating tube method

CCCC[n+]1ccn(C)c1.O=S(=O)([N-]S(=O)(=O)C(F)(F)F)C(F)(F)F
Details	mass density [kg/m3]	speed of sound [m/s]
283.15 K, 100 kPa	–	1264.5
283.15 K, 5090 kPa	–	1280.8
283.15 K, 9980 kPa	–	1296.8
283.15 K, 20020 kPa	–	1327.9
283.15 K, 29950 kPa	–	1357.3
283.15 K, 44830 kPa	–	1398.7
283.15 K, 59710 kPa	–	1437.5
283.15 K, 79700 kPa	–	1486.8
283.15 K, 98920 kPa	–	1531.3
283.15 K, 124410 kPa	–	1586.6
283.15 K, 151000 kPa	–	1640.5
293.15 K, 100 kPa	–	1238.1
293.15 K, 5000 kPa	–	1254.6
293.15 K, 10020 kPa	–	1271.2
293.15 K, 20010 kPa	–	1302.5
293.15 K, 59650 kPa	–	1411.8
293.15 K, 99720 kPa	–	1505.9
293.15 K, 151200 kPa	–	1611.9
298.15 K, 100 kPa	1437.04	–
298.15 K, 5000 kPa	1440.78	–
298.15 K, 7460 kPa	1442.64	–
298.15 K, 9920 kPa	1444.45	–
298.15 K, 12380 kPa	1446.22	–
298.15 K, 14840 kPa	1447.99	–
298.15 K, 17300 kPa	1449.71	–
298.15 K, 19760 kPa	1451.41	–
298.15 K, 22210 kPa	1453.09	–
298.15 K, 24670 kPa	1454.75	–
298.15 K, 27130 kPa	1456.4	–
298.15 K, 29590 kPa	1458.04	–
298.15 K, 32050 kPa	1459.61	–
298.15 K, 34510 kPa	1461.19	–
298.15 K, 36970 kPa	1462.78	–
298.15 K, 39430 kPa	1464.31	–
298.15 K, 41880 kPa	1465.81	–
298.15 K, 44340 kPa	1467.33	–
298.15 K, 46800 kPa	1468.8	–
298.15 K, 49260 kPa	1470.28	–
298.15 K, 51720 kPa	1471.69	–
298.15 K, 54180 kPa	1473.13	–
298.15 K, 56640 kPa	1474.55	–
298.15 K, 59100 kPa	1475.94	–
303.14 K, 100 kPa	1432.49	–
303.14 K, 5000 kPa	1436.13	–
303.14 K, 7460 kPa	1437.93	–
303.14 K, 9920 kPa	1439.73	–
303.14 K, 12380 kPa	1441.51	–
303.14 K, 14840 kPa	1443.23	–
303.14 K, 17300 kPa	1444.96	–
303.14 K, 19760 kPa	1446.65	–
303.14 K, 22210 kPa	1448.37	–
303.14 K, 24670 kPa	1449.99	–
303.14 K, 27130 kPa	1451.64	–
303.14 K, 29590 kPa	1453.25	–
303.14 K, 32050 kPa	1454.87	–
303.14 K, 34510 kPa	1456.47	–
303.14 K, 36970 kPa	1458.05	–
303.14 K, 39430 kPa	1459.6	–
303.14 K, 41880 kPa	1461.17	–
303.14 K, 44340 kPa	1462.67	–
303.14 K, 46800 kPa	1464.2	–
303.14 K, 49260 kPa	1465.69	–
303.14 K, 51720 kPa	1467.16	–
303.14 K, 54180 kPa	1468.67	–
303.14 K, 56640 kPa	1470.14	–
303.14 K, 59100 kPa	1471.59	–
303.15 K, 100 kPa	–	1217.5
303.15 K, 5030 kPa	–	1234
303.15 K, 10000 kPa	–	1250.7
303.15 K, 20030 kPa	–	1282.8
303.15 K, 59720 kPa	–	1393.5
303.15 K, 98960 kPa	–	1485.9
303.15 K, 150840 kPa	–	1592.9
308.09 K, 100 kPa	1427.92	–
308.09 K, 5000 kPa	1431.5	–
308.09 K, 7460 kPa	1433.28	–
308.09 K, 9920 kPa	1435.07	–
308.09 K, 12380 kPa	1436.81	–
308.09 K, 14840 kPa	1438.55	–
308.09 K, 17300 kPa	1440.27	–
308.09 K, 19760 kPa	1441.96	–
308.09 K, 22210 kPa	1443.64	–
308.09 K, 24670 kPa	1445.32	–
308.09 K, 27130 kPa	1446.94	–
308.09 K, 29590 kPa	1448.61	–
308.09 K, 32050 kPa	1450.21	–
308.09 K, 34510 kPa	1451.8	–
308.09 K, 36970 kPa	1453.43	–
308.09 K, 39430 kPa	1454.99	–
308.09 K, 41880 kPa	1456.59	–
308.09 K, 44340 kPa	1458.14	–
308.09 K, 46800 kPa	1459.69	–
308.09 K, 49260 kPa	1461.21	–
308.09 K, 51720 kPa	1462.74	–
308.09 K, 54180 kPa	1464.26	–
308.09 K, 56640 kPa	1465.8	–
308.09 K, 59100 kPa	1467.28	–
313.15 K, 100 kPa	1422.99	1194.5
313.15 K, 5000 kPa	1426.56	–
313.15 K, 5010 kPa	–	1211.5
313.15 K, 7460 kPa	1428.4	–
313.15 K, 9920 kPa	1430.14	–
313.15 K, 10010 kPa	–	1228.7
313.15 K, 12380 kPa	1431.97	–
313.15 K, 14840 kPa	1433.7	–
313.15 K, 17300 kPa	1435.41	–
313.15 K, 19760 kPa	1437.1	–
313.15 K, 19960 kPa	–	1261.1
313.15 K, 22210 kPa	1438.8	–
313.15 K, 24670 kPa	1440.5	–
313.15 K, 27130 kPa	1442.16	–
313.15 K, 29590 kPa	1443.8	–
313.15 K, 32050 kPa	1445.44	–
313.15 K, 34510 kPa	1447.05	–
313.15 K, 36970 kPa	1448.67	–
313.15 K, 39430 kPa	1450.26	–
313.15 K, 41880 kPa	1451.88	–
313.15 K, 44340 kPa	1453.41	–
313.15 K, 46800 kPa	1455.01	–
313.15 K, 49260 kPa	1456.51	–
313.15 K, 51720 kPa	1458.07	–
313.15 K, 54180 kPa	1459.64	–
313.15 K, 56640 kPa	1461.15	–
313.15 K, 59100 kPa	1462.71	–
313.15 K, 59730 kPa	–	1373.5
313.15 K, 98970 kPa	–	1466.4
313.15 K, 150890 kPa	–	1573.2
318.14 K, 100 kPa	1418.06	–
318.14 K, 5000 kPa	1421.63	–
318.14 K, 7460 kPa	1423.41	–
318.14 K, 9920 kPa	1425.23	–
318.14 K, 12380 kPa	1427	–
318.14 K, 14840 kPa	1428.76	–
318.14 K, 17300 kPa	1430.5	–
318.14 K, 19760 kPa	1432.21	–
318.14 K, 22210 kPa	1433.93	–
318.14 K, 24670 kPa	1435.62	–
318.14 K, 27130 kPa	1437.31	–
318.14 K, 29590 kPa	1439.01	–
318.14 K, 32050 kPa	1440.66	–
318.14 K, 34510 kPa	1442.31	–
318.14 K, 36970 kPa	1443.93	–
318.14 K, 39430 kPa	1445.59	–
318.14 K, 41880 kPa	1447.2	–
318.14 K, 44340 kPa	1448.84	–
318.14 K, 46800 kPa	1450.43	–
318.14 K, 49260 kPa	1452.03	–
318.14 K, 51720 kPa	1453.64	–
318.14 K, 54180 kPa	1455.23	–
318.14 K, 56640 kPa	1456.83	–
318.14 K, 59100 kPa	1458.39	–
323.14 K, 100 kPa	1413.69	–
323.14 K, 5000 kPa	1417.31	–
323.14 K, 7460 kPa	1419.14	–
323.14 K, 9920 kPa	1420.97	–
323.14 K, 12380 kPa	1422.8	–
323.14 K, 14840 kPa	1424.57	–
323.14 K, 17300 kPa	1426.35	–
323.14 K, 19760 kPa	1428.11	–
323.14 K, 22210 kPa	1429.82	–
323.14 K, 24670 kPa	1431.56	–
323.14 K, 27130 kPa	1433.26	–
323.14 K, 29590 kPa	1434.96	–
323.14 K, 32050 kPa	1436.63	–
323.14 K, 34510 kPa	1438.32	–
323.14 K, 36970 kPa	1439.98	–
323.14 K, 39430 kPa	1441.63	–
323.14 K, 41880 kPa	1443.28	–
323.14 K, 44340 kPa	1444.91	–
323.14 K, 46800 kPa	1446.54	–
323.14 K, 49260 kPa	1448.18	–
323.14 K, 51720 kPa	1449.79	–
323.14 K, 54180 kPa	1451.4	–
323.14 K, 56640 kPa	1453.01	–
323.14 K, 59100 kPa	1454.62	–
323.15 K, 100 kPa	–	1172.6
323.15 K, 5050 kPa	–	1190.2
323.15 K, 10030 kPa	–	1207.8
323.15 K, 19940 kPa	–	1241
323.15 K, 59810 kPa	–	1355.9
323.15 K, 99220 kPa	–	1450.8
323.15 K, 150840 kPa	–	1557.4
328.2 K, 100 kPa	1408.32	–
328.2 K, 5000 kPa	1412.04	–
328.2 K, 7460 kPa	1413.97	–
328.2 K, 9920 kPa	1415.75	–
328.2 K, 12380 kPa	1417.61	–
328.2 K, 14840 kPa	1419.44	–
328.2 K, 17300 kPa	1421.25	–
328.2 K, 19760 kPa	1423.05	–
328.2 K, 22210 kPa	1424.84	–
328.2 K, 24670 kPa	1426.58	–
328.2 K, 27130 kPa	1428.34	–
328.2 K, 29590 kPa	1430.04	–
328.2 K, 32050 kPa	1431.76	–
328.2 K, 34510 kPa	1433.46	–
328.2 K, 36970 kPa	1435.15	–
328.2 K, 39430 kPa	1436.83	–
328.2 K, 41880 kPa	1438.52	–
328.2 K, 44340 kPa	1440.15	–
328.2 K, 46800 kPa	1441.79	–
328.2 K, 49260 kPa	1443.46	–
328.2 K, 51720 kPa	1445.11	–
328.2 K, 54180 kPa	1446.72	–
328.2 K, 56640 kPa	1448.35	–
328.2 K, 59100 kPa	1449.96	–
